This is an account of results in US7625917B2, “Thiolesters and uses thereof” (priority 1998, dated 2009).

A word on the pEC50: it is −log10 of the EC50, conventionally taken in molar units. The term IC50 denotes the midpoint of a concentration-inhibition curve.

Structures are written as SMILES. pEC50: −log10 of the molar value.

In one assay the test system is HIV-1 virus. The assay can be described thus: Virus inactivation by PCR assay of treated virions. The class given is cell-based. The source says:
The thiolester-treated virions can also be tested for infectivity. The virions are suspended in media (rather than solubilized) and added to target cells. The cultures are then examined to determine whether the virions are still active. To determine whether the treated virus particles are active, the cells are monitored for the presence of intracellularly-synthesized viral RNA using, for example, the polymerase chain reaction (PCR) (Rice (1993) Proc. Natl. Acad. Sci. USA 90:9721;Turpin (1996) J. Virol. 70:6180). Alternatively, cytoprotection assays can be used (Weislow (1993) J. Natl. Cancer Inst. 81:577).
An example of a compound which can be used as a control in the gel mobility shift assay is azodicarbonamide (ADA), a compound which is commercially available from the Aldrich Chemical Company (Milwaukee, Wis.).

Assay [1] addresses T1, Virion-associated NCp7 proteins from cell-free HIV-1MN (Human immunodeficiency virus type 1 group M subtype B, UniProt P05888).
T1 construct: attack on the mature NCp7 retroviral zinc fingers in the cell-free virus; endogenous in cells
The assay can be described thus: Virion NCp7 cross-linking (non-reducing Western blotting). As to the method: The interaction of zinc finger inhibitors, such as the thiolesters of the invention, with cell-free virus can result in modification of intravirion NCp7 protein and loss of infectivity. Virion-associated NCp7 proteins from cell-free HIV-1MN were treated with thiolester compounds 44 and 45. They were also evaluated by non-reducing Western blotting using HIV-1 NCp7-specific antibodies. […] Cross-linking by compound 45 was due to formation of intermolecular disulfide bonds because reduction with 2-mercaptoethanol (β-ME) completely reversed the gel retardation.
Virion cross linking was performed as described by Rice (1995) Science 270:1194-1197 and Turpin (1997) Antiviral Chem. Chemother. 8:60-67. Briefly, highly purified HIV-1MN (11.8 μg total protein) was incubated for 2 hour with concentrations of compound. Virions were concentrated and residual compound was removed by centrifugation (18,000×g, 1 h, 4° C.). The viral pellet was solubilized in 0.5 M Tris-HCl, (pH 6.8), 50% glycerol, 8% SDS and 0.4% bromophenol blue and proteins resolved by Western blotting. Western blotting to detect the expression of HIV-1 proteins in U1 cells or virus pellets for virion cross-linking experiments was carried out as described by Turpin (1996) J. Virol. 70:6180-6189. Briefly, 50 μg of total cellular protein for U1 experiments or the. total virion pellet (11.8 μg total viral protein) for NCp7 cross linking studies was resolved on 4 to 20% polyacrylamide gels in SDS with Tris-Glycine (Novex, San Diego Calif.). Samples for reduced gels were boiled for 5 min in the presence of 5% β-ME prior to loading. Resolved proteins were electroblotted on to polyvinylidene difluoride (PVDF) membranes, and HIV-1 specific proteins were detected using a mixture of goat anti-HIV-1 NCp7 and p24 or anti-NCp7 for virion proteins alone (a kind gift of L. E. Henderson, AIDS Vaccine Program NCI-FCRDC, Frederick, Md.). Western blots were developed using standard chemiluminescence methodologies, as produced and described by Dupont-NEN, Wilmington, Del.
Purified concentrated retrovirus and antisera against the purified NC protein of the virus can be used to test the ability of a specific compound to penetrate the virus and react with the NC protein by forming disulfide complexes in the core of the virus. Compound are mixed with the whole retrovirus under reaction conditions appropriate for the compound. The virus is then removed from the reagent by centrifugation and disrupted in, e.g., standard SDS-PAGE sample buffer with (reduced) and without (non-reduced) 2-mercaptoethanol. The viral proteins are then separated by standard SDS-PAGE and the sample examined for the presence or absence of the monomeric zinc finger protein in the non-reduced sample. Depending upon the virus used in the experiment and the conditions of electrophoresis, the zinc finger protein can be visualized by protein staining methods, or by immuno-blot methods. Compounds which react with the zinc finger protein by attacking the zinc finger complexes and forming disulfide cross-linked products inactivate the virus. Thus, compounds of interest (i.e., those which cause cross-linking), including the thiolesters of the invention, reduce the amount of monomeric zinc finger protein detected.
In general terms: In western blotting, separated proteins are transferred to a membrane and probed.

The test system of a further assay is HIV-1RF. The assay can be described thus: XTT cytoprotection assay (antiviral activity). The class given is cell-based. To be noted: for pEC50: Table 10, read-out: EC50 %. The source says:
One exemplary means to determine antiviral activity is with CEM-SS cells and virus (e.g., HIV-1RF) (MOI=0.01) using the XTT (2,3-bis[2-methoxy-4-nitro-5-sulfophenyl]-5-[(phenylamino)carbonyl]-2H-tetrazolium hydroxide) cytoprotection assay, as described by Rice (1993) PNAS 90:9721-9724, and Rice (1997) Antimicrob. Agents Chemother. 41:419-426. Briefly, cells are infected with HIV-1 RF (or other virus to be tested) in the presence of various dilutions of test compounds (thiolesters and controls). The cultures are incubated for seven days. During this time control cultures without protective compounds (i.e., compounds with anti-viral activity) replicate virus, induce syncytia, and result in about 90% cell death. The cell death is measured by XTT dye reduction. XTT is a soluble tetrazolium dye that measures mitochondrial energy output, similar to MTT. Positive controls using dextran sulfate (an attachment inhibitor) or 3′-Azido-2′-3′-dideoxythymidine, AZT (a reverse transcriptase inhibitor) are added to each assay. Individual assays are done in duplicate using a sister plate method.
Effective antiviral concentrations providing 50% cytoprotection (EC50), and cellular growth inhibitory concentrations causing 50% cytotoxicity (IC50) are calculated.
In general terms: Tetrazolium dyes change colour on reduction, which living cells bring about.

A further assay relates to CEM-SS cells. The assay can be described thus: cells. Type of assay: cell-based. Particulars: Table 10; 50% cytotoxicity; read-out: IC50. On the procedure: Agents Chemother. […] Briefly, cells are infected with HIV-1 RF (or other virus to be tested) in the presence of various dilutions of test compounds (thiolesters and controls). The cultures are incubated for seven days. […] The cell death is measured by XTT dye reduction. XTT is a soluble tetrazolium dye that measures mitochondrial energy output, similar to MTT. Positive controls using dextran sulfate (an attachment inhibitor) or 3′-Azido-2′-3′-dideoxythymidine, AZT (a reverse transcriptase inhibitor) are added to each assay. Individual assays are done in duplicate using a sister plate method.

For assay [2], the target named is T2, recombinant HIV-1 NCp7 protein (Human immunodeficiency virus type 1 group M subtype B, UniProt P03347).
T2 construct: recombinant HIV-1 NCp7 protein
Briefly: Trp37 zinc finger fluorescence (zinc ejection) assay. Type of assay: biochemical. To be noted: Table 10; average decrease in relative fluorescence units over 30 min. On the procedure:
Zinc finger reactivity was measured using a Zn specific fluorochrome, TSQ, N-(6-methoxy-8-quinolyl)-p-toluenesulfonamide, assay or a Trp37 zinc finger fluorescence assay. Fluorescent measurements of the Trp37 residue in the C-terminal finger of recombinant HIV-1 NCp7 protein were performed as described by Rice (1995) Science 270:1194-1197; Rice (1997) Antimicrob. Agents Chemother. 41:419-426. Measurement of Zn ejection from both fingers was measured using the Zn-selective fluorchrome probe TSQ (Molecular Probes, Eugene Oreg.) as described by Rice (1996) J. Med. Chem 39:3606-3616. […] Briefly, 50 nM NCp7 was treated with test compounds for 1 hour at RT in […] buffer containing 10% glycerol and 50 mM Tris-HCl (pH 7.5). Labeled oligomer (0.1 picomole, end labeled [^32P] was added in an equal volume of buffer containing 10% glycerol, 50 mM Tris-HCl (pH 7.5), 400 mM KCl and 40 mM MgCl2. The reaction was continued for 15 min at room temperature, and a total of […] (or ¼ of the total reaction volume) was separated on nondenaturing 4.5% polyacrylamide gels in 0.5× Tris-Borate electrophoresis buffer. NCp7-oligomer complexes were visualized by autoradiography.
Changes in the intrinsic fluorescence of aromatic protein moieties are commonly used to monitor a reaction which involves a change in protein conformation. In the present invention, fluorescence can be used to monitor the loss of metal ion from a zinc finger, e.g., the loss of zinc from a CCHC retroviral zinc finger protein, after contact with a thiolester of the invention. The intrinsic fluorescence of Trp37 in the second zinc finger of HIV-1 NC protein has been used to monitor nucleic acid binding and conformation of the zinc finger complex (see, Summers (1992) supra).
Zinc ejection is measured by the ability of compounds to chemically attack the cysteines in purified NCp7 protein resulting in a loss of fluorescence due to the. movement of the tryptophan 37 residue […] position on the protein. Zinc ejection is measured and expressed as either percent decrease in total fluorescence or decrease in relative fluorescence units per min during a 30 min assay (RFU/min). A thiolester is considered within the scope of the invention if any amount of zinc ejection is detected.

Regarding `NC(=O)N=NC(N)=O` [ADA, azodicarbonamide], the “inactivation of HIV-1 virus (in words)” value in the assay with HIV-1 virus is on record as “inactivates HIV-1 virus”.
As for `Cc1cn([C@H]2C[C@H](N=[N+]=[N-])[C@@H](CO)O2)c(=O)[nH]c1=O` [AZT, 3′-Azido-2′-3′-dideoxythymidine, reference compound], the “intravirion NCp7 cross-linking (in words)” value in assay [1] was “failed to cross-link NCp7”.
Take `CC(=O)NS(=O)(=O)c1ccc(NC(=O)c2ccccc2SC(=O)CCCCC[n+]2ccccc2)cc1` [Compound 55]: the pEC50 with HIV-1RF is 4.98. For the same compound, in the assay on CEM-SS cells, the IC50 was 69.7 µM. The “Zinc Finger Reactivity RFU/min” value in assay [2] worked out at 1.9 RFU/min.
For the compound `CC(=O)NS(=O)(=O)c1ccc(NC(=O)c2ccccc2NC(=O)CCCC[n+]2ccccc2)cc1` [Compound 56], the “antiviral activity (in words)” value with HIV-1RF was “inactive”. Besides, the 50% inhibitory concentration (IC50) with CEM-SS cells is greater than 316 µM. In addition, the “Zinc Finger Reactivity RFU/min” value in assay [2] amounted to 2.6 RFU/min.
Regarding `CC(=O)NS(=O)(=O)c1ccc(NC(=O)c2ccccc2SC(=O)CCCC[n+]2cccc(Cl)c2)cc1` [Compound 57], the negative logarithm of the EC50 (pEC50) in the assay with HIV-1RF was 4.27. In the assay with CEM-SS cells, the half-maximal inhibitory concentration (IC50) stood at 264 µM. Also, the “Zinc Finger Reactivity RFU/min” value in assay [2] was found to be 0.2 RFU/min.
